# Measured values as given in patent US11312711B2, “Morpholine derivative” (Hoffmann-La Roche Inc., priority 2016, dated 2022).
# Read-outs that look alike come from different tables or passages of the source.
# What was measured:
# human TAAR1 = human TAAR1 (Homo sapiens (Human), UniProt Q96RJ0); test: cAMP functional assay in HEK293 cells expressing human TAAR1; type: cell-based; settings: for EC50: cAMP, HEK293 cells expressing human TAAR1, read-out: hTAAR1 EC50
# Method: The Expand High Fidelity PCR System (Roche Diagnostics) was used with 1.5 mM Mg^2+ and purified PCR products were cloned into pCR2.1-TOPO cloning vector (Invitrogen) following the instructions of the manufacturer. PCR products were subcloned into the pIRESneo2 vector (BD Clontech, Palo Alto, Calif.), and expression vectors were sequence verified before introduction in cell lines.
# HEK293 cells (ATCC #CRL-1573) were cultured essentially as described by Lindemann et al. (2005). For the generation of stably transfected cell lines HEK293 cells were transfected with the pIRESneo2 expression plasmids containing the TAAR coding sequences (described above) with Lipofectamine 2000 (Invitrogen) according to the instructions of the manufacturer, and 24 hrs post transfection the culture medium was supplemented with 1 mg/ml G418 (Sigma, Buchs, Switzerland). After a culture period of about 10 d clones were isolated, expanded and tested for responsiveness to trace amines (all compounds purchased from Sigma) with the cAMP Biotrak Enzyme immunoassay (EIA) System (Amersham) following the non-acetylation EIA procedure provided by the manufacturer.
# cAMP measurements were performed as described previously (Revel et al., Proc. Natl. Acad. Sci. USA 2011, 108, 8485-8490). In brief, cells that expressed human TAAR1 were plated on 96-well plates (BIOCOAT 6640; Becton Dickinson, Allschwil, Switzerland) and incubated for 20 h at 37° C. Prior to stimulation of the cells with a broad concentration range of agonists for 30 min at 37° C., the cells were washed with PBS and preincubated with PBS that contained 1 mM 3-isobutyl-1-methylxanthine for 10 min at 37° C. and 5% CO2. Stimulation with 0.2% DMSO was set as the basal level, and the effect of 30 μM β-PEA was set as the maximal response. […] Finally, the plates were read with a luminometer (1420 Multilabel counter; PerkinElmer, Schwerzenbach, Switzerland), and the amount of cAMP was calculated. […]
# human DAT = human DAT (Homo sapiens (Human), UniProt Q01959); test: Binding to dopamine transporter (DAT) in vitro, [3H]-WIN35,428 SPA
# human DAT, sequence (Q01959 whole entry): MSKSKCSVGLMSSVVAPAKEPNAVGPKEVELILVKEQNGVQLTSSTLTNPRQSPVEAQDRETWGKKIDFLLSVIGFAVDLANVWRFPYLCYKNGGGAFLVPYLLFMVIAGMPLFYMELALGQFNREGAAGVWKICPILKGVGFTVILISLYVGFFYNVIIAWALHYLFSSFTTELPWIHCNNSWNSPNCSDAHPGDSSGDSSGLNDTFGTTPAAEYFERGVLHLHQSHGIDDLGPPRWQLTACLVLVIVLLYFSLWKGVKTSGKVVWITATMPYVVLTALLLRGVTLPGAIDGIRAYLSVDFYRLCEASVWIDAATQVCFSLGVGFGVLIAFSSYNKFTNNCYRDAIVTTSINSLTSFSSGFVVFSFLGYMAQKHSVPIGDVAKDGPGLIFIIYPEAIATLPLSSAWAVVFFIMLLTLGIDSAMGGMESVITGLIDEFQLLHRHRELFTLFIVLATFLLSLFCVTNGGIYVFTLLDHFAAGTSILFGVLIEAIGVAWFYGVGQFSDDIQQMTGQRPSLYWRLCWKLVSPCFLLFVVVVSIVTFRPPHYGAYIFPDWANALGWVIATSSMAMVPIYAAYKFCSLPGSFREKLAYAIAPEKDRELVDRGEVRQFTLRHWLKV
# Method: Binding to dopamine transporter (DAT) in vitro. Human embryonic kidney (HEK) 293 cells (Invitrogen, Zug, Switzerland) stably transfected with human DAT were cultured. The cells were collected and washed three times with phosphate-buffered saline (PBS). The pellets were frozen at −80° C. The pellets were then resuspended in 400 ml of 20 mM HEPES-NaOH, pH 7.4, that contained 10 mM EDTA at 4° C. […] Aliquots of the membrane stocks were frozen at −80° C. All assays were performed at least three times. The test compounds were diluted in […] of binding buffer (252 mM NaCl, 5.4 mM KCl, 20 mM Na2HPO4, 3.52 mM KH2PO4, pH 7.4) and 10 point dilution curves were made and transferred to 96-well white polystyrene assay plates (Sigma-Aldrich, Buchs, Switzerland). […] Twenty microliters of binding buffer alone in the assay plate defined the total binding, whereas binding in the presence of 10 μM indatraline defined nonspecific binding. Frozen DAT membrane stocks were thawed and resuspended to a concentration of approximately 0.04 mg protein/ml binding buffer (1:1 diluted in H2O) using a polytron tissue homogenizer. The membrane homogenates (40 μg/ml) were then lightly mixed for 5-30 min with polyvinyl toluene […] wheat germ agglutinin-coated scintillation proximity assay (WGASPA; Amersham Biosciences) beads at 7.7 mg beads/ml homogenate. One hundred thirty microliters of the membrane/bead mixture were added to each well of the assay plate that contained radioligand and test compounds (final volume in each well, 200 μl) to start the assay, which was incubated for approximately 2 h at room temperature with agitation. The assay plates were then counted in the PVT SPA counting mode of a Packard Topcount. […] Non-linear regression was used to fit the data to sigmoid curves and determine IC50 values for binding and uptake. Ki values for binding and uptake were calculated using the following Cheng-Prusoff equation: Ki=IC50/(1+[S]/Km).
# hERG potassium channels = hERG potassium channels (Homo sapiens (Human), UniProt Q12809); test: Whole-cell patch-clamp on hERG potassium channels in stably transfected CHO cells; type: cell-based
# hERG potassium channels, sequence (Q12809 whole entry): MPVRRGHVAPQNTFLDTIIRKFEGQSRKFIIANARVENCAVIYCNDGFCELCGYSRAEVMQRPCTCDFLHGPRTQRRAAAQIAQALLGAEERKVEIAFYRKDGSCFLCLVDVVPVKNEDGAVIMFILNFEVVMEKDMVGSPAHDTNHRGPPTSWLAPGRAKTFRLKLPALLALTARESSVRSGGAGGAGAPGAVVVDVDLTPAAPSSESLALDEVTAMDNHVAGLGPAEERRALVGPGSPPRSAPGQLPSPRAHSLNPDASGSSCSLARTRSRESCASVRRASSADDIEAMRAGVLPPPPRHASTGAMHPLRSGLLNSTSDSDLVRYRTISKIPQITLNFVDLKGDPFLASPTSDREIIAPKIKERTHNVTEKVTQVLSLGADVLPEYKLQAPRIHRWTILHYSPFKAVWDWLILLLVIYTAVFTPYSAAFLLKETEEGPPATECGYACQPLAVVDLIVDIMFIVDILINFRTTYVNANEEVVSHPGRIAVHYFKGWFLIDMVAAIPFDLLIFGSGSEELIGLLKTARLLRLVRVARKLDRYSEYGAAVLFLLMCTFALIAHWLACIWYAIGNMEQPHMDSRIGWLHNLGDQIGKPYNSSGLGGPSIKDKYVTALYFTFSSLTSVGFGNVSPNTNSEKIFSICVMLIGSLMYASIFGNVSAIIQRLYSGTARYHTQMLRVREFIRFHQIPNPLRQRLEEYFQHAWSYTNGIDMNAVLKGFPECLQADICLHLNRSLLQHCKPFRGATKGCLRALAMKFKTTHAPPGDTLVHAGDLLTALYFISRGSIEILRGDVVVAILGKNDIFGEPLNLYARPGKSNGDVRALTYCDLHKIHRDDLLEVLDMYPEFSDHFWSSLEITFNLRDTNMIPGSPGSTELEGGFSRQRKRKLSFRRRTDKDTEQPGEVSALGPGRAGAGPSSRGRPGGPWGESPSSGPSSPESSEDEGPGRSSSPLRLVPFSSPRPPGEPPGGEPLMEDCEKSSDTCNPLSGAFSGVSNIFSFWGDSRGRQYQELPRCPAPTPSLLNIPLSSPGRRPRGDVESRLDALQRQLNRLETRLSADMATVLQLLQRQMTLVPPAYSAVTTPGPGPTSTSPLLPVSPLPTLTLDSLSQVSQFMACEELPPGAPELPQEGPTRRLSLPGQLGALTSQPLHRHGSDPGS
# Method: The whole-cell patch-clamp technique was used to investigate the effects of the test items on hERG (human-ether-a-go-go related gene) potassium channels in stably transfected CHO cells near physiological temperature (36±1° C.). The effects of compounds on hERG K^+-current parameters were evaluated at 4 concentrations (0.3-3-30-300 μM) in at least 3 CHO cells stably expressing the hERG channel. For electrophysiological measurements cells were seeded onto 35 mm sterile culture dishes containing 2 ml culture medium without Hygromycin B. Cells were cultivated at a density that enabled single cells (without visible connections to neighbouring cells) to be measured. Cells were incubated at 37° C. in a humidified atmosphere with 5% CO2 (rel. humidity about 95%). The cells were continuously maintained in and passaged in sterile culture flasks containing nutrient mixture F-12 (DMEM/F-12 with L-Glutamine) supplemented with 10% foetal bovine serum and 10% penicillin/streptomycin solution. […] The 35 mm culture dishes upon which cells were seeded at a density allowing single cells to be recorded were placed on the dish holder of the microscope and continuously perfused (at approximately 1 ml/min) with the bath solution (sodium chloride 150 mM, potassium chloride 4 mM, calcium chloride 1.2 mM, magnesium chloride 1 mM, HEPES 10 mM, pH (NaOH) 7.4) at near physiological temperature (36±1° C.). After formation of a Gigaohm seal between the patch electrodes and individual hERG stably transfected CHO cells (pipette resistance range: 2.0 MΩ-7.0 MΩ; seal resistance range: >1 GΩ) the cell membrane across the pipette tip was ruptured to assure electrical access to the cell interior (whole-cell patch-configuration). In case the quality of the seal was poor, the process of seal formation was repeated with a different cell and a new pipette. […] This voltage protocol was run at least 10 times at intervals of 10 s. If current density was judged to be too low for measurement, another cell was recorded. […] During wash-in of the test item the voltage protocol indicated above was run continuously again at 10 s intervals until the steady-state level of block was reached. The four test item concentrations of the compound were applied sequentially to 3 cells in a cumulative manner. […] Based on the IC50 value the IC20 was estimated. Each concentration of the test item was analyzed in three experiments (n=3).
# mutant DAT = mutant DAT (Mus musculus (Mouse), UniProt Q61327, A109V/F105C/L104V); settings: cocaine-insensitive DAT; cited from earlier work
# human TAAR1, sequence (Q96RJ0 whole entry): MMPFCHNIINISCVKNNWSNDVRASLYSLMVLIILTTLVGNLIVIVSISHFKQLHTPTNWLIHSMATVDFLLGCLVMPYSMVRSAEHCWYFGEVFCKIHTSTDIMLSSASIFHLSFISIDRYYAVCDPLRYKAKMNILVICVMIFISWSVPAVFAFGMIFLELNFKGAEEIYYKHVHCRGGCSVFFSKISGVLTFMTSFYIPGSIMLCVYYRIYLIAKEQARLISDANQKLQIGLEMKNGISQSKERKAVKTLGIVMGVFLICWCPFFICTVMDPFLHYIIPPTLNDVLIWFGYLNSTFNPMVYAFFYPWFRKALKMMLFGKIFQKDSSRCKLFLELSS
Molecule,"hTAAR1 efficacy (human TAAR1; % agonist activity, β-phenylethylamine = 100% agonism) [%]",EC50 (human TAAR1; listed as Comparative example 12) [nM],EC50 (human TAAR1) [nM],Ratio DAT Ki/hTAAR1 EC50 (human DAT),DAT selectivity ratio versus hTAAR1 EC50 (human DAT; DAT Ki versus hTAAR1 EC50) [fold],"Ki (human DAT; [3H]-WIN35,428 radioligand) [nM]",Ratio hERG IC20/hTAAR1 EC50 (hERG potassium channels),IC20 (hERG potassium channels; estimated based on the IC50 value) [µM],hERG selectivity ratio versus hTAAR1 EC50 (hERG potassium channels; hERG IC20 versus hTAAR1 EC50) [fold],"IC50 (hERG potassium channels; patch-clamp, CHO cells, 36±1° C.) [µM]",lower affinity of mutant DAT for cocaine relative to wild-type DAT (mutant DAT) [fold]
5-Chloro-N-[4-[(2S)-morpholin-2-yl]phenyl]pyridine-2-carboxamide [Example 12],40,212,212,8,8,1780,15,3.21,15,14.3,–
COC(=O)[C@H]1[C@@H](OC(=O)c2ccccc2)C[C@@H]2CC[C@H]1N2C [cocaine],–,–,–,–,–,–,–,–,–,–,89
